Experiments:
[1] = Stability of dry DM1-NO under ambient conditions (Griess assay); type: physicochemical; conditions: powder form, 2 weeks' storage at room temperature
Text: (§1) FIGS. 1A and 1B are schemes illustrating how DM1-NO encapsulated PLGA-b-PEG nanoparticles (DM1-NO-NPs) can accumulate in tumors through the EPR effect. In the presence of radiation and/or reduced pH in endosomes/lysosomes, the S—N bond was broken, releasing DM1 and NO. DM1 inhibits microtubule assembly, arresting cells at the more radiosensitive G2/M phase. Meanwhile, NO can react with ROS to form radicals such as peroxynitrites, causing DNA and lipid damages. The combined effects enhance the efficacy of RT. […] Quantification was based on Greiss assay. PBS, cell culture medium (RPBI-1640), DM1, and DM1-NPs were tested as controls. FIG. 1D is a histogram showing the results of DLS analysis of DM1-NO-NPs in water. FIG. 1E is a plot showing the zeta potential of DM1-NO-NPs in water. FIG. 1F is a bar graph illustrating the stability of DM1-NO under ambient conditions. After synthesis, dry product of DM1-NO was kept at room temperature and the total amount of remaining NO was quantified using Griess assay on Day 0, 7, 14, and 21. FIG. 1G is plot illustrating the stability of DM1-NO in solutions. DM1-NO (20.09 μmol) was dissolved in PBS of different pH (5.5, 6.5, and 7.4). Time-dependent NO release was measured on a Sievers NOA 280i system, which assesses NO based on gas phase chemiluminescent reaction between NO and ozone. […]

[2] = NO release in solution with and without 6 Gy X-ray irradiation (Greiss assay); type: physicochemical; conditions: for NO release: Greiss assay
Text: as §1, with “ozone. FIG. 1H is a line graph showing release profiles for DM1-NO-NPs, tested in PBS of different pH at 37° C. by Greiss assays. FIG. 1I is a histogram showing the results of DLS analysis of DM1-NPs. FIG. 1J is a plot showing the zeta potential of DM1-NPs. FIG. 1K is a series of representative images of clonogenic assays. H1299 cells were treated with 20 nM of DM1 and DM1-NO for 12 h, followed −X-ray irradiation (6 Gy).” for “ozone.”
NO concentration was assessed to determine the amount of DM1-NO prodrug loaded into the DM1-NO-NPs. […] Therefore, to quantify the overall NO amount, the total nitrite (NO2-) and nitrate (NO3-) concentrations in a NP solution cells) were measured using Nitrate/Nitrite Colorimetric assay (Cayman Chemical) by following the vendor's protocol. […]

[3] = test system: H1299 cells; test: Clonogenic assay with X-ray irradiation, linear-quadratic model; type: cell-based, human
Protocol: Around 3×10^5 of H1299 cells were plated in a series of 25 mm petri dishes in 5 mL of complete RMPI-1640 medium, and the cells were incubated for 24 h at 37° C. Once the cells were completely adhered to the bottom of the plate, the media was replaced with fresh RPMI-1640 containing DM1 or DM1-NO with a final concentration of 20 nM. After another 12 h of incubation, the cell cultures were irradiated by X-rays (320 kV) of different doses Immediately following the X-ray irradiation, the cell monolayers were trypsinized using 0.05% Trypsin/EDTA (Gibco, Life Technologies, USA). Single cells were collected and plated onto a 25 mm petri dish in 5 mL complete media (FIG. 1K). Each dish was then incubated for 21 days to allow colonies to form. After that, the media was removed and 0.5% crystal violet in 70% methanol was used to fixed and stain the existing colonies. The plates were sufficiently and carefully rinsed, and were dried at room temperature. Once dried, the colonies were counted manually under a microscope. When observed under the microscope, colonies of […] were said to be surviving colonies. The survival rate of these colonies was normalized to the plating efficiency of the untreated control cells. The mean and standard deviation of surviving colonies in each treatment group was calculated.
The potential of DM1-NO as a radiosensitizer was assessed by clonogenic assays. Briefly, DM1 or DM1-NO was incubated with H1299 cells, the cells were irradiated with X-rays (0-10 Gy), and the resulting cells were seeded onto a petri dish (FIG. 1K). Colonies consisting more than 50 cells after 3 weeks were counted, and the data fit to a linear-quadratic model (Table 3).

[4] = Time-dependent NO release in PBS of different pH (Sievers NOA 280i chemiluminescence); type: physicochemical
Text: FIGS. 1A and 1B are schemes illustrating how DM1-NO encapsulated PLGA-b-PEG nanoparticles (DM1-NO-NPs) can accumulate in tumors through the EPR effect. In the presence of radiation and/or reduced pH in endosomes/lysosomes, the S—N bond was broken, releasing DM1 and NO. DM1 inhibits microtubule assembly, arresting cells at the more radiosensitive G2/M phase. Meanwhile, NO can react with ROS to form radicals such as peroxynitrites, causing DNA and lipid damages. The combined effects enhance the efficacy of RT. […] Quantification was based on Greiss assay. PBS, cell culture medium (RPBI-1640), DM1, and DM1-NPs were tested as controls. FIG. 1D is a histogram showing the results of DLS analysis of DM1-NO-NPs in water. FIG. 1E is a plot showing the zeta potential of DM1-NO-NPs in water. FIG. 1F is a bar graph illustrating the stability of DM1-NO under ambient conditions. After synthesis, dry product of DM1-NO was kept at room temperature and the total amount of remaining NO was quantified using Griess assay on Day 0, 7, 14, and 21. FIG. 1G is plot illustrating the stability of DM1-NO in solutions. DM1-NO (20.09 μmol) was dissolved in PBS of different pH (5.5, 6.5, and 7.4). Time-dependent NO release was measured on a Sievers NOA 280i system, which assesses NO based on gas phase chemiluminescent reaction between NO and ozone. FIG. 1H is a line graph showing release profiles for DM1-NO-NPs, tested in PBS of different pH at 37° C. by Greiss assays. FIG. 1I is a histogram showing the results of DLS analysis of DM1-NPs. FIG. 1J is a plot showing the zeta potential of DM1-NPs. FIG. 1K is a series of representative images of clonogenic assays. H1299 cells were treated with 20 nM of DM1 and DM1-NO for 12 h, followed −X-ray irradiation (6 Gy). The resulting cells were plated for clonogenic assays. FIG. 1L is a plot showing UV-vis analysis of DM1-NO, PLGA-b-PEG and DM1-NO-NPs. FIG. 1M is a plot showing FT-IR analysis of DM1-NO, PLGA-b-PEG and DM1-NO-NPs. FIG. 1N is a plot showing the results of DLS analysis (hydrodynamic size) over time for DM1-NO-NPs that were incubated in PBS for 24 h.
DM1-NO was stable under ambient conditions in the powder form. According to Griess assay, less than 10% of the compound was degraded over 2 weeks' storage at room temperature (FIG. 1F). […] (FIG. 1G), and the degradation was accelerated at low pH (e.g. pH 6.5 or 5.5, FIG. 1G, Table 1), and under X-ray irradiation (FIG. 1C).

COc1cc2cc(c1Cl)N(C)C(=O)C[C@@H](OC(=O)[C@H](C)N(C)C(=O)CCSN=O)[C@]1(C)OC1[C@H](C)[C@@H]1C[C@@](O)(NC(=O)O1)[C@H](OC)/C=C\C=C(/C)C2 (stereo partly drawn) [DM1-NO]
compound degraded [1]: less than 10%
increase of NO release ([2]; 6 Gy X-ray irradiation applied to solution): 5.14 fold
NO release ([2]; before 6 Gy X-ray irradiation): 3.68 µM
NO release ([2]; in the presence of 6 Gy X-ray irradiation): 18.88 µM
D10 (radiation dose at 10% fractional survival) ([3]; 20 nM, 12 h, X-rays 0-10 Gy): 4.39 Gy
α (linear quadratic model best fit value) ([3]; 20 nM, 12 h, X-rays 0-10 Gy): 0.0765
β (linear quadratic model best fit value) ([3]; 20 nM, 12 h, X-rays 0-10 Gy): 0.0051
dose modifying factor at 10% factional survival (DMF10) ([3]; relative to RT alone): 1.23
degradation in solution ([4]; PBS at 37° C., accelerated at low pH and under X-ray): gradually broke down
Average NO Release (per μL of sample) ([4]; PBS pH 5.5): 1.29E−07 μmol NO/min
Average NO Release (per μL of sample) ([4]; PBS pH 6.5): 7.81E−08 μmol NO/min
Average NO Release (per μL of sample) ([4]; PBS pH 7.4): 7.83E−08 μmol NO/min

Source: US12570704B2, “Functionally modified maytansinoids and compositions and methods of use thereof” (University of Georgia Research Foundation, Inc., priority 2019, dated 2026)
